# Source: patent US20100267561A1, “HERBICIDAL PYRIDAZINONE DERIVATIVES” (priority 2007, published 2010)
# How the values were obtained:
# Format in all cases: in vivo
# [1] = tested on: barnyardgrass (Echinochloa crus-galli); assay: Test B flooded paddy test plant response
# Outline: (§1)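 Compounds were added directly to paddy water over 2-leaf-stage plants in pots flooded 3 cm above soil, water depth maintained. Visual injury scored against controls after 13 to 15 days in greenhouse, 0 (none) to 100 (complete control); dash indicates no result.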
# rice (Oryza sativa) = assay: Test B flooded paddy test plant response
# Outline: as §1
# [2] = tested on: ducksalad (Heteranthera limosa); assay: Test B flooded paddy test plant response
# Outline: as §1
# [3] = tested on: umbrella sedge (Cyperus difformis); assay: Test B flooded paddy test plant response
# Outline: as §1
# [4] = tested on: common (oilseed) sunflower (Helianthus annuus); assay: Test B pre-/postemergence plant response; conditions: Preemergence
# Source text: (§2) Seeds of plant species selected from blackgrass (Alopecurus myosuroides), downy bromegrass (Bromus tectorum), green foxtail (Setaria viridis), Italian ryegrass (Lolium multiflorum), wheat (Triticum aestivum), wild oat (Avena fatua), catchweed bedstraw (Galium aparine), bermudagrass (Cynodon dactylon), surinam grass (Brachiaria decumbens), cocklebur (Xanthium strumarium), corn (Zea mays), large crabgrass (Digitaria sanguinalis), woolly cupgrass (Eriochloa villosa), giant foxtail (Setaria faberii), goosegrass (Eleusine indica), johnsongrass (Sorghum halepense), kochia (Kochia scoparia), lambsquarters (Chenopodium album), morningglory (Ipomoea coccinea), eastern black (E.B.) nightshade (Solanum ptycanthum), yellow nutsedge (Cyperus esculentus), pigweed (Amaranthus retroflexus), common ragweed (Ambrosia elation), Russian thistle (Salsola iberica), soybean (Glycine max), common (oilseed) sunflower (Helianthus annuus), and velvetleaf (Abutilon theophrasti) were planted and treated preemergence with test chemicals formulated in a non-phytotoxic solvent mixture which included a surfactant.
# (§3) At the same time, plants selected from these crop and weed species and also winter barley (Hordeum vulgare), canarygrass (Phalaris minor), chickweed (Stellaria media) and windgrass (Apera spica-venti) were treated with postemergence applications of some of the test chemicals formulated in the same manner. Plants ranged in height from 2 to 18 cm (1- to 4-leaf stage) for postemergence treatments.
# (§4) Plant species in the flooded paddy test consisted of rice (Oryza sativa), umbrella sedge (Cyperus difformis), ducksalad (Heteranthera limosa) and barnyardgrass (Echinochloa crus-galli) grown to the 2-leaf stage for testing. At time of treatment, test pots were flooded to 3 cm above the soil surface, treated by application of test compounds directly to the paddy water, and then maintained at that water depth for the duration of the test. Treated plants and controls were maintained in a greenhouse for 13 to 15 days, after which time all species were compared to controls and visually evaluated. Plant response ratings, summarized in Table B, are based on a scale of 0 to 100 where 0 is no effect and 100 is complete control. A dash (-) response means no test result.
# wild oat (Avena fatua) = assay: Test B pre-/postemergence plant response; conditions: Preemergence
# Source text: as §2, §3, §4
# [5] = tested on: morningglory (Ipomoea coccinea); assay: Test B pre-/postemergence plant response; conditions: Preemergence
# Source text: as §2, §3, §4
# [6] = tested on: surinam grass (Brachiaria decumbens); assay: Test B pre-/postemergence plant response; conditions: Preemergence
# Source text: as §2, §3, §4
# [7] = tested on: large crabgrass (Digitaria sanguinalis); assay: Test B pre-/postemergence plant response; conditions: Preemergence
# Source text: as §2, §3, §4
# [8] = tested on: downy bromegrass (Bromus tectorum); assay: Test B pre-/postemergence plant response; conditions: Preemergence
# Source text: as §2, §3, §4
# corn (Zea mays) = assay: Test B pre-/postemergence plant response; conditions: Preemergence
# Source text: as §2, §3, §4
# [9] = tested on: wheat (Triticum aestivum); assay: Test B pre-/postemergence plant response; conditions: Preemergence
# Source text: as §2, §3, §4
# [10] = tested on: velvetleaf (Abutilon theophrasti); assay: Test B pre-/postemergence plant response; conditions: Preemergence
# Source text: as §2, §3, §4
# [11] = tested on: green foxtail (Setaria viridis); assay: Test B pre-/postemergence plant response; conditions: Preemergence
# Source text: as §2, §3, §4
# [12] = Flood (flooded paddy test), 62 g ai/ha, scale 0 to 100, 0 no effect, 100 complete control
# [13] = Flood (flooded paddy test), 125 g ai/ha, scale 0 to 100, 0 no effect, 100 complete control
# [14] = Flood (flooded paddy test), 250 g ai/ha, scale 0 to 100, 0 no effect, 100 complete control
# [15] = Flood, 31 g ai/ha, scale 0 to 100
# [16] = 31 g ai/ha, 0 to 100 scale, 0 no effect, 100 complete control
smiles,measurement,setting,value
Cc1cc(-c2ccc(C(F)(F)F)cc2)nn1-c1c(OC(=O)C(C)(C)C)cnn(C)c1=O [Compound 2],"Plant response rating, Barnyardgrass",[1]; [12],0
same,"Plant response rating, Barnyardgrass",[1]; [13],20
same,"Plant response rating, Barnyardgrass",[1]; [14],45
same,"Plant response rating, Barnyardgrass",[1]; [15],0
same,"Plant response rating, Rice",rice (Oryza sativa); [12],15
same,"Plant response rating, Rice",rice (Oryza sativa); [13],15
same,"Plant response rating, Rice",rice (Oryza sativa); [14],45
same,"Plant response rating, Rice",rice (Oryza sativa); [15],0
same,"Plant response rating, Ducksalad",[2]; [12],0
same,"Plant response rating, Ducksalad",[2]; [13],0
same,"Plant response rating, Ducksalad",[2]; [14],40
same,"Plant response rating, Ducksalad",[2]; [15],0
same,"Plant response rating, Sedge, Umbrella",[3]; [12],50
same,"Plant response rating, Sedge, Umbrella",[3]; [13],60
same,"Plant response rating, Sedge, Umbrella",[3]; [15],0
same,"Plant response rating, Sunflower",[4]; [16],0
same,"Plant response rating, Sunflower","[4]; 62 g ai/ha, scale 0 to 100",0
same,"Plant response rating, Sunflower","[4]; 125 g ai/ha, scale 0 to 100",0
same,"Plant response rating, Sunflower","[4]; 250 g ai/ha, scale 0 to 100",0
same,"Plant response rating, Oat, Wild",wild oat (Avena fatua); [16],0
same,"Plant response rating, Oat, Wild","wild oat (Avena fatua); 62 g ai/ha, scale 0 to 100",50
same,"Plant response rating, Oat, Wild","wild oat (Avena fatua); 250 g ai/ha, scale 0 to 100",60
same,"Plant response rating, Morningglory",[5]; [16],0
same,"Plant response rating, Morningglory","[5]; 62 g ai/ha, scale 0 to 100",0
same,"Plant response rating, Morningglory","[5]; 125 g ai/ha, scale 0 to 100",0
same,"Plant response rating, Morningglory","[5]; 250 g ai/ha, scale 0 to 100",0
same,"Plant response rating, Surinam Grass",[6]; [16],85
same,"Plant response rating, Surinam Grass","[6]; 62 g ai/ha, scale 0 to 100",85
same,"Plant response rating, Surinam Grass","[6]; 250 g ai/ha, scale 0 to 100",100
same,"Plant response rating, Crabgrass, Large",[7]; [16],98
same,"Plant response rating, Crabgrass, Large","[7]; 62 g ai/ha, scale 0 to 100",100
same,"Plant response rating, Crabgrass, Large","[7]; 125 g ai/ha, scale 0 to 100",100
same,"Plant response rating, Crabgrass, Large","[7]; 250 g ai/ha, scale 0 to 100",100
same,"Plant response rating, Bromegrass, Downy",[8]; [16],0
same,"Plant response rating, Bromegrass, Downy","[8]; 62 g ai/ha, scale 0 to 100",20
same,"Plant response rating, Bromegrass, Downy","[8]; 125 g ai/ha, scale 0 to 100",70
same,"Plant response rating, Corn",corn (Zea mays); [16],50
same,"Plant response rating, Corn","corn (Zea mays); 62 g ai/ha, scale 0 to 100",90
same,"Plant response rating, Corn","corn (Zea mays); 125 g ai/ha, scale 0 to 100",95
same,"Plant response rating, Corn","corn (Zea mays); 250 g ai/ha, scale 0 to 100",95
same,"Plant response rating, Wheat",[9]; [16],30
same,"Plant response rating, Wheat","[9]; 62 g ai/ha, scale 0 to 100",50
same,"Plant response rating, Wheat","[9]; 125 g ai/ha, scale 0 to 100",60
same,"Plant response rating, Wheat","[9]; 250 g ai/ha, scale 0 to 100",75
same,"Plant response rating, Velvetleaf",[10]; [16],0
same,"Plant response rating, Velvetleaf","[10]; 62 g ai/ha, scale 0 to 100",0
same,"Plant response rating, Velvetleaf","[10]; 125 g ai/ha, scale 0 to 100",0
same,"Plant response rating, Velvetleaf","[10]; 250 g ai/ha, scale 0 to 100",10
same,"Plant response rating, Foxtail, Green",[11]; [16],90
same,"Plant response rating, Foxtail, Green","[11]; 62 g ai/ha, scale 0 to 100",95
same,"Plant response rating, Foxtail, Green","[11]; 125 g ai/ha, scale 0 to 100",100
same,"Plant response rating, Foxtail, Green","[11]; 250 g ai/ha, scale 0 to 100",100
